40 compounds from patent US20250066349A1 (Prothena Biosciences Limited, priority 2021, published 2025) can be followed below.

Where two headings read alike, the source gives them in different places.

The target in the test is DYRK1A (Homo sapiens (Human), UniProt Q13627). The test is described as follows: DYRK1A Inhibition Assay. The class given is biochemical. The note with it: DYRK1A 1 nM, ATP 20 μM, Ser/Thr 18 peptide 2 μM, 90 minutes, read-out: DYRK1 IC50. The procedure: DYRK1A—Invitrogen #PV4105
• Ser/Thr 18 peptide—Invitrogen #PR8227U • Phos-Ser/Thr 18 peptide—Invitrogen #PR8229U • Assay plate—PerkinElmer #6007279 • ATP—Sigma #A7699-5G • Development reagent A—Invitrogen #PR5194B • Development buffer—Invitrogen #PR4876B Compound preparation • 1. Test compounds were diluted to 1 mM in DMSO • 2. Stock was further diluted 3-fold using Echo platform • 3. 100 nL of DMSO into Columns 1 and 24 and 100 nL of compounds dilutions to Columns 2-23 in a plate.
• 1. Add 5 μL enzyme & substrate mixture to each well in Column 2-23 and A24-H24 wells of the 384-well assay plate; • 2. Add 5 μL 0% Phosphorylation control to A1-H1 and I24-P24 wells of the assay plate; • 3. Add 5 μL 100% Phosphorylation control to I1-P1 wells of the assay plate; • 4. Spin the assay plate (1000 rpm, 1 minute @23° C.); • 5. Incubate enzyme with compounds for 15 minutes at 23° C.; • 6. Add 5 μL ATP solution to each well of the assay plate; • 7. Spin the plate (1000 rpm, 1 minute @23° C.); • 8. Incubate the assay plate for 90 minutes at 23° C.; • 9. Add 10 μL Development reagent A to each well of the assay plate; • 10. Centrifuge the plate at 1000 rpm about 15 seconds and seal a film over assay plate. Incubate the assay plate for 30 minutes at 23° C. • 11. Read assay plates on Envision (see Tables A-D).
Final Compound Concentrations
• Assay buffer: 50 mM Hepes pH7.5, 10 mM MgCl2, 1 mM EDTA, 0.01% Brij-35 • DYRK1A: 1 nM • ATP: 20 μM • Ser/Thr 18 peptide: 2 μM • Reaction time: 90 minutes

Turning to `O[C@@H]1CCN(c2cncc(-c3ccc4cnc5[nH]cc(C6CCC6)c5c4c3)c2)C1` [Compound 67, (R)-1-(5-(1-cyclobutyl-3H-pyrrolo[2,3-c]isoquinolin-8-yl)pyridin-3-yl)pyrrolidin-3-ol], the IC50 (in general, the concentration that gives 50% inhibition) (Compounds of Formula (I)) was at most 10 nM.
The same measure, in the same setting: as for `Cn1cc(-c2ccc3cnc4ncn(C5CCC5)c4c3c2)cn1` [Compound 58, 1-cyclobutyl-8-(1-methyl-1H-pyrazol-4-yl)-1H-imidazo[4,5-c]isoquinoline], the figure is 10 to 100 nM; as for `Cc1[nH]c2ncc3ccncc3c2c1-c1cccc(C(=O)O)c1` [Compound 95, 3-(8-methyl-7H-pyrrolo[2,3-c][2,6]naphthyridin-9-yl)benzoic acid], 100 to 1000 nM; as for `Cc1c(-c2cccnc2)[nH]c2ncc3cnccc3c12` [Compound 53], 100 to 1000 nM.
Same read-out and setting: then `CN1CCN(C(=O)c2c[nH]c3ncc4ccc(-c5cccnc5)cc4c23)CC1` [Compound 10, (4-methylpiperazin-1-yl)(8-(pyridin-3-yl)-3H-pyrrolo[2,3-c]isoquinolin-1-yl)methanone], with 100 to 1000 nM; and `Cn1cc(-c2ccc3cnc4[nH]cc(C5CCN(S(C)(=O)=O)CC5)c4c3c2)cn1` [Compound 29, 8-(1-methyl-1H-pyrazol-4-yl)-1-(1-(methylsulfonyl)piperidin-4-yl)-3H-pyrrolo[2,3-c]isoquinoline], with at most 10 nM; and `CN1CCN(c2nccc3c2cnc2[nH]cc(-c4ccncc4)c23)CC1` [Compound 43, 6-(4-methylpiperazin-1-yl)-1-(pyridin-4-yl)-3H-pyrrolo[2,3-c][2, 7]naphthyridine], with 10 to 100 nM.
Regarding `O=c1[nH]c2cc3c(cc2o1)[nH]c(=O)n3-c1cccc(O)c1` [Compound 11], under “Compounds of Formula (IV)”, the IC50 was 1000 to 5000 nM.
`CNC(=O)C1CCC(c2c[nH]c3ncc4ccc(-c5cnn(C)c5)cc4c23)CC1` (stereo not shown) [Compound 27]: the IC50 (Compounds of Formula (I)) is at most 10 nM.
On the same count and under the same terms, as for `Cn1cc(-c2ccc3cnc4occc4c3c2)cn1` [Compound 76, 8-(1-methyl-1H-pyrazol-4-yl)furo[2,3-c]isoquinoline], the figure is 10 to 100 nM.
For the compound `Cn1c(=O)[nH]c2ncc(-c3ccc4cnsc4c3)cc21` [Compound 30, 6-(benzo[d]isothiazol-6-yl)-1-methyl-1,3-dihydro-2H-imidazo[4,5-b]pyridin-2-one], the IC50 (Compounds of Formula (I)) fell in the range of 100 to 1000 nM.
As to `CN1CCC(C(=O)Nc2ncc(-c3ccc4ncoc4c3)s2)CC1` [Compound 1], the IC50 (Compounds of Formula (III)) was in the range of 50 to 200 nM.
Take `O=C(O)[C@H]1C[C@@H](c2c[nH]c3ncc4ccccc4c32)C1` [Compound 32, (1s,3s)-3-(3H-pyrrolo[2,3-c]isoquinolin-1-yl)cyclobutane-1-carboxylic acid]: under “Compounds of Formula (I)”, the IC50 lay in the range of 100 to 1000 nM.
Turning to `CC(=O)N1CCc2c(cnc3[nH]cc(-c4cccnc4)c23)C1` [Compound 8], the IC50 (Compounds of Formula (IV)) is 1000 to 5000 nM.
For the compound `Cc1c(C2CCN(CC(C)(C)O)CC2)[nH]c2ncc3ccc(-c4cnn(C)c4)cc3c12` [Compound 56, 2-methyl-1-(4-(1-methyl-8-(1-methyl-1H-pyrazol-4-yl)-3H-pyrrolo[2,3-c]isoquinolin-2-yl)piperidin-1-yl)propan-2-ol], the IC50 (Compounds of Formula (I)) was at most 10 nM.
The same measure, in the same setting: as for `Cn1cc(-c2ccc3cnc4cc(C5CCOCC5)sc4c3c2)cn1` [Compound 72], the figure is at most 10 nM; as for `Cc1c(C2CCNCC2)[nH]c2ncc3ccc(-c4cnn(C)c4)cc3c12` [Compound 41, 1-methyl-8-(1-methyl-1H-pyrazol-4-yl)-2-(piperidin-4-yl)-3H-pyrrolo[2,3-c]isoquinoline], at most 10 nM; as for `Cn1cc(-c2ccc3cnc4c(c3c2)CC(=O)N4)cn1` [Compound 85, 8-(1-methyl-1H-pyrazol-4-yl)-1,3-dihydro-2H-pyrrolo[2,3-c]isoquinolin-2-one], 10 to 100 nM.
For the compound `CN1CCC(c2c(C(F)(F)F)[nH]c3ncc4cc(-c5cnco5)ccc4c23)CC1` [Compound 57, 5-(1-(1-methylpiperidin-4-yl)-2-(trifluoromethyl)-3H-pyrrolo[2,3-c]isoquinolin-7-yl)oxazole], for the setting “Compounds of Formula (I)”, the IC50 was above 1000 nM.
Consider `O=C(O)C1CC(c2c[nH]c3ncc4ncccc4c23)C1` (stereo not shown) [Compound 34, 3-(3H-pyrrolo[3,2-f][1,7]naphthyridin-1-yl)cyclobutane-1-carboxylic acid], for which, under “Compounds of Formula (I)”, the IC50 lay in the range of 100 to 1000 nM.
Same read-out and setting: then `Fc1ccc(-c2c[nH]c3ncc4ccc(-c5cn[nH]c5)cc4c23)cc1` [Compound 3, 1-(4-fluorophenyl)-8-(1H-pyrazol-4-yl)-3H-pyrrolo[2,3-c]isoquinoline], with 10 to 100 nM; and `Cc1c(C2CCN(C)CC2)[nH]c2ncc3ccc(-c4cnn(C)c4)cc3c12` [Compound 42, 1-methyl-8-(1-methyl-1H-pyrazol-4-yl)-2-(1-methylpiperidin-4-yl)-3H-pyrrolo[2,3-c]isoquinoline], with at most 10 nM; and `Cn1cc(-c2ccc3cnc4[nH]cc(-c5ccc(F)cc5)c4c3c2)cn1` [Compound 2, 1-(4-fluorophenyl)-8-(1-methyl-1H-pyrazol-4-yl)-3H-pyrrolo[2,3-c]isoquinoline], with 10 to 100 nM.
For the compound `CN1CCC(c2cc3c(-c4cc5scnc5cn4)ccnc3[nH]2)CC1` [Compound 4], under “Compounds of Formula (II)”, the IC50 is 100 to 1000 nM.
Regarding `Cc1c[nH]c2ncc3ccc(-c4cnc(C#CC5CCOCC5)s4)cc3c12` [Compound 63], where the note is “Compounds of Formula (I)”, the IC50 is at most 10 nM.
Still for that read-out and setting: as for `O[C@@H]1CCN(c2cncc(-c3ccc4cnc5[nH]c(C6CCC6)cc5c4c3)c2)C1` [Compound 70], the figure is 10 to 100 nM; as for `Cn1ccc2c3cc(-c4cnc(C#CC5CCOCC5)s4)ccc3cnc21` [Compound 60], 10 to 100 nM.
As for `O=C(O)c1ccc2c(cnc3c2cnn3CC2CCOCC2)c1` [Compound 71], under “Compounds of Formula (I)”, the IC50 fell in the range of 100 to 1000 nM.
As to `CN1CCC(c2nccc3c2cnc2[nH]cc(-c4ccncc4)c23)CC1` [Compound 44, 6-(1-methylpiperidin-4-yl)-1-(pyridin-4-yl)-3H-pyrrolo[2,3-c][2, 7]naphthyridine], the IC50 (Compounds of Formula (I)) lay in the range of 100 to 1000 nM.
Same read-out and setting: as for `c1ncc(-c2ccc3cnc4sc(C5CCN(CC6CC6)CC5)nc4c3c2)s1` [Compound 86, 2-(1-(cyclopropylmethyl)piperidin-4-yl)-8-(thiazol-5-yl)thiazolo[5,4-c]isoquinoline], the figure is 10 to 100 nM; as for `Cn1cc(-c2ccc3cnc4[nH]cc(C5CCC(C(=O)N6CCNCC6)CC5)c4c3c2)cn1` (stereo not shown) [Compound 28, (4-(8-(1-methyl-1H-pyrazol-4-yl)-3H-pyrrolo[2,3-c]isoquinolin-1-yl)cyclohexyl)(piperazin-1-yl)methanone], at most 10 nM.
On the same count and under the same terms, then `c1ncc(-c2ccc3cnc4cc(C5CCOCC5)sc4c3c2)o1` [Compound 73, 5-(2-(tetrahydro-2H-pyran-4-yl)thieno[3,2-c]isoquinolin-8-yl)oxazole], with 10 to 100 nM; and `O=c1[nH]c2ncc(-c3ccc4cnsc4c3)cc2n1C1CCC1` [Compound 31, 6-(benzo[d]isothiazol-6-yl)-1-cyclobutyl-1,3-dihydro-2H-imidazo[4,5-b]pyridin-2-one], with 100 to 1000 nM.
For the compound `CN1CCC(C#Cc2ncc(-c3ccc4cnc5[nH]ccc5c4c3)s2)CC1` [Compound 61, 2-((1-methylpiperidin-4-yl)ethynyl)-5-(3H-pyrrolo[2,3-c]isoquinolin-8-yl)thiazole], the IC50 (Compounds of Formula (I)) was at most 10 nM.
The same measure, in the same setting: as for `Cn1cc(-c2ccc3cnc4c(c3c2)c([C@H]2CC[C@H](N(C)C)CC2)cn4C)cn1` [Compound 50, (1r,4r)-N,N-dimethyl-4-(3-methyl-8-(1-methyl-1H-pyrazol-4-yl)-3H-pyrrolo[2,3-c]isoquinolin-1-yl)cyclohexan-1-amine], the figure is 10 to 100 nM; as for `Cn1cc(-c2ccc3cnc4[nH]c(=O)n(C5CC(O)C5)c4c3c2)cn1` (stereo not shown) [Compound 21, 1-(3-hydroxycyclobutyl)-8-(1-methyl-1H-pyrazol-4-yl)-1,3-dihydro-2H-imidazo[4,5-c]isoquinolin-2-one], 10 to 100 nM.
The same measure, in the same setting: then `Cc1c(C2CCN(CCF)CC2)[nH]c2ncc3ccc(-c4cnn(C)c4)cc3c12` [Compound 54, 2-(1-(2-fluoroethyl)piperidin-4-yl)-1-methyl-8-(1-methyl-1H-pyrazol-4-yl)-3H-pyrrolo[2,3-c]isoquinoline], with at most 10 nM.
`OCc1ccc2c(cnc3[nH]cc(-c4ccc(F)cc4)c32)c1` [Compound 5]: the IC50 (Compounds of Formula (I)) fell in the range of 10 to 100 nM.
Regarding `Cn1ncc2cc3[nH]c(=O)n(-c4cccc(O)c4)c3cc21` [Compound 5], the IC50 (Compounds of Formula (IV)) was 500 to 1000 nM.
For `Cn1cc(-c2ccc3c4c(ncc3c2)NC(=O)C4)cn1` [Compound 84, 7-(1-methyl-1H-pyrazol-4-yl)-1,3-dihydro-2H-pyrrolo[2,3-c]isoquinolin-2-one], the IC50 (Compounds of Formula (I)) is above 1000 nM.
